Here are results for five compounds from PMC5271370, “A High-Content Assay Enables the Automated Screening and Identification of Small Molecules with Specific ALDH1A1-Inhibitory Activity” (PLoS ONE, 2017).

Where two headings read alike, the source gives them in different places.

Experiment [1] deals with breast cancer cells that express ALDH1A3. Set-up: method as in PMID 27592281. The conditions noted are these: flow cytometry, at concentrations >10 μM; cited from earlier work. For orientation: A flow cytometer gives signals particle by particle.
In the next experiment the test system is LN-229 cells. The experiment can be described thus: 1,536-well high-content imaging ALDEFLUOR assay, LN-229. It is filed as cell-based, human. On the procedure: We next sought to test if the fully automated high-content assay could be used to detect ALDH1A1-specific inhibitors.
The ALDEFLUOR kit was purchased from […] Technologies (Vancouver, Canada; #01700). Cells (5 μL) were dispensed into black, optical quality (cyclic olefin copolymer) clear bottom, medium binding TC treated 1,536-well plates (Aurora Microplates, Whitefish MT) using a Multidrop Combi dispenser (ThermoFisher) and incubated overnight (37°C, 5% CO2, 85% RH). Media was subsequently removed by centrifuging plates upside down using a plate adaptor to collect media. A solution of BAAA substrate ([…] Technologies) and Hoechst 33342 (ThermoFisher, final concentrations of 500 nM and 0.5 nM, respectively) in ALDEFLUOR buffer ([…] Technologies #01700) was dispensed onto cells using a Multidrop Combi followed by immediate transfer (23 nL) of compound or control solutions using a Wako Pin-tool (final percentage of DMSO in the cell plates was 0.5%). Unless otherwise noted, all compounds were assayed as 16-point dilutions spanning a final concentration range of 1.4 nM to […]. […] Cells were incubated for 30 minutes or the indicated amount of time at 37°C, 5% CO2, 85% RH to allow the conversion of BAAA into BAA. Supernatant was subsequently removed by centrifugation as described above, then ALDEFLUOR buffer (3 μl) was dispensed by Multidrop Combi before imaging on an IN Cell 2200 (GE Healthcare).
The above assay was modified for an online robotic screening system. After cell plating and overnight incubation, 4 μL of media were removed using a 64-tip metal aspirator head on a Wako aspirator station, leaving 1 μL remaining in the well, followed by a 4 μL dispense of BAAA and Hoechst 33342 in ALDEFLUOR buffer, for a final concentration of 500 nM and 0.5 nM, respectively. Immediately following the dispense, 23 nL of compound or control solutions were transferred using a Wako Pin-tool. […] Plates were then immediately read on the IN Cell 2200 as described below.
For images captured on the IN Cell 2200 widefield automated microscope, a 10x 0.45 NA Plan Apo objective lens was used to capture the entire well of the 1,536-well plate using standard DAPI (390/18x, 432/48m) and FITC (475/28x, 525/48m) filter sets at 50 msec and 100 msec exposures, respectively. Images were subsequently analyzed using IN Cell Investigator v1.6.2 analysis software’s canned Multi-Target Analysis algorithm (GE Healthcare). […]
The same controls were also used for the calculation of the Z’ factor for each assay. The Z’ factor, a measure of assay quality control, was determined as previously described. […] All concentration–response curves were fitted as before and IC50 were calculated with the GraphPad Prism software.

The test system of a further experiment is ALDH1A3. The note with it: reported ALDH target 1A3; read-out: Reported Biochemical IC50, ALDH1A3; cited from earlier work.
The next experiment has as its system ALDH1A2. The note with it: reported ALDH target 1A2; read-out: Reported Biochemical IC50, ALDH1A2; cited from earlier work.
The subject of another experiment is ALDH3A1. The note with it: reported ALDH target 3A1; read-out: Reported Biochemical IC50, ALDH3A1; cited from earlier work.

`CCN(CC)c1ccc(C=O)cc1` [DEAB, 4-N,N-diethylaminobenzaldehyde]: the “Reduction of ALDEFLUOR fluorescence” value in experiment [1] is on record as “significantly reduced ALDEFLUOR fluorescence”. Also, the IC50 is around 3480 nM in the experiment with LN-229 cells (1,000 cells/well, 500 nM substrate, 30 minutes, read-out: ALDEFLUOR IC50 LN-229); 3000 nM in the experiment on ALDH1A3; 1200 nM in the experiment with ALDH1A2. On to `CC(C)=CCCC(C)=CC=O` (mixture of isomers) [Citral], for which the “Reduction of ALDEFLUOR fluorescence” value in experiment [1] is listed as “significantly reduced ALDEFLUOR fluorescence”. With `COc1ccc(C(=O)CCN(C)C)cc1F` [Aldi-2], in the experiment on ALDH3A1, the 50% inhibitory concentration (IC50) is 1900 nM.

As for `CC(C)(C)c1ccc(S(=O)(=O)/C=C/C#N)cc1` [Bay-11-7085], in the experiment on ALDH3A1, the IC50 was 100 nM.

Turning to `CC(C)N(C(=O)CCl)c1ccccc1` [Propachlor], the IC50 turned out to be 16000 nM in the experiment on LN-229 cells (Homo sapiens, LN-229, read-out: ALDEFLUOR IC50 LN229, retest of screen hits, 11-point dose response 0.77 nM to 45.8 μM) and 16100 nM with LN-229 cells (read-out: ALDEFLUOR IC50 LN229, retest of screen hits, 11-point dose response 0.77 nM to 45.8 μM).

What is called IC50 is the concentration needed to halve the response being measured.
